Common to all, as to assay: growth of human tumour cells (NCI), 48 h
Assay [1] has as its system IGROV-1.
The test system of assay [2] is SN12C.
Assay [3] deals with PC-3.
The subject of assay [4] is OVCAR-3.
Assay [5] concerns UACC-257.
In assay [6] the test system is SF-539.
In assay [7] the test system is ACHN.
In assay [8] the test system is OVCAR-8.
Assay [9] concerns SNB-75.
The subject of assay [10] is MDA-N.
Assay [11] deals with SK-MEL-2.
The subject of assay [12] is HCC 2998.
For assay [13], the system named is MOLT-4.
Assay [14] concerns NCI/ADR-RES.
The test system of assay [15] is CAKI-1.
Assay [16] deals with BT-549.
In assay [17] the test system is SW-620.
Assay [18] relates to M14.
Assay [19] concerns RXF 393.
In assay [20] the test system is HL-60.

Each structure is given as a SMILES string.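 All cell lines were grown in 96-well plates and treated with compound for 48 hours. The concentration for 50% growth inhibition is given as GI50.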 Active and inactive are the calls of the source. No stated cut-off is given here; in the data, active = GI50 up to about 1.1 µM and inactive = higher. Where only a bound is given, the exact number is not on record here.

`CCCNC(=S)N/C=C1/C(=O)C=C(C)OC1=O`: the GI50 in [1], in assay [2], in assay [3], in [4], in assay [5] and in [6] was > 100 µM (inactive) in each case. In addition, the GI50 in assay [7], in [8], in [9], in assay [10], in assay [11] and in assay [12] was > 100 µM (inactive) each time. The GI50 in [13], in assay [14], in assay [15], in [16], in [17] and in assay [18] was > 100 µM (inactive) in each case.

As to `O=C1c2ccsc2-c2cccc3cccc1c23.O=C1c2sccc2-c2cccc3cccc1c23`, the GI50 in assay [19] is 2.49 µM (inactive); in assay [1], 6.59 µM (inactive); in assay [20], 11.2 µM (inactive); in assay [2] it was 6.67 µM (inactive); in assay [3], 4.05 µM (inactive); in assay [4], 10.5 µM (inactive). The GI50 in assay [5] was 9.2 µM (inactive); in assay [6] it was 6.22 µM (inactive); in assay [7], 2.37 µM (inactive); in [8], 4.94 µM (inactive); in [9], 3.27 µM (inactive); in assay [11], 14.8 µM (inactive). Besides, the GI50 in assay [13] is 1.29 µM (inactive); in assay [14] it was 3.56 µM (inactive); in [15], 2.26 µM (inactive); in assay [16], 1.94 µM (inactive); in assay [17] it was 3.27 µM (inactive); in [18] it was 18.9 µM (inactive).

As to `COc1ccc2oc(=N)c(C(=O)Nc3ccccc3)cc2c1`, the GI50 in assay [19] is 17.3 µM (inactive); in [1] it was 17.9 µM (inactive); in assay [2], 36.2 µM (inactive); in [3], 32.9 µM (inactive); in assay [4], 30.5 µM (inactive); in assay [5] it was 62.5 µM (inactive). Also, the GI50 is 20.3 µM (inactive) in assay [6]; 13.7 µM (inactive) in assay [7]; 19.2 µM (inactive) in [8]; 10.4 µM (inactive) in assay [9]; 18.5 µM (inactive) in assay [10]; 17.2 µM (inactive) in [11]. Also, the GI50 in assay [13] is 13.8 µM (inactive); in assay [14], 16.9 µM (inactive); in [15], 5.61 µM (inactive); in [16], 17.7 µM (inactive); in [17] it was 22 µM (inactive); in assay [18], 38.1 µM (inactive).

On to `CCc1c2c(nc3ccc(O)cc13)-c1cc3c(c(=O)n1C2)COC(=O)[C@]3(O)CC` [7-ETHYL-10-HYDROXYCAMPTOTHECIN], for which the GI50 in [20] is < 0.001 µM (active); in assay [2], < 0.001 µM (active); in [3], 0.00746 µM (active); in assay [4], 0.0116 µM (active); in assay [5] it was 0.013 µM (active); in assay [6], < 0.001 µM (active). The GI50 in [7] is < 0.001 µM (active); in assay [10] it was 0.00206 µM (active); in assay [11] it was 0.0231 µM (active); in assay [13], < 0.001 µM (active); in [15], < 0.001 µM (active); in assay [16], < 0.001 µM (active). Moreover, the GI50 in assay [18] was < 0.001 µM (active).

Consider `CC(C)(C)OC(=O)C1C(=O)NC(=O)CC1C(COCc1ccccc1)OCc1ccccc1` (stereo not given), for which the GI50 in [1] was 22.9 µM (inactive); in assay [20], 21.4 µM (inactive); in assay [2], > 10 µM (inactive); in assay [3] it was 12.4 µM (inactive); in assay [4], 21.8 µM (inactive); in assay [5] it was 20.7 µM (inactive). Also, the GI50 in [6] is 21.6 µM (inactive); in [7], 23 µM (inactive); in [8], 29.3 µM (inactive); in [10], 18 µM (inactive); in [12], 25.7 µM (inactive); in assay [13] it was 17.5 µM (inactive). The GI50 in [15] was 50.4 µM (inactive); in assay [16], 32.1 µM (inactive); in assay [17], 25.4 µM (inactive); in assay [18] it was 18.9 µM (inactive).

Regarding `O=C(O)c1c(Cl)c(Cl)c(Cl)c(Cl)c1C(=O)Nc1ccc2cn[nH]c2c1`, the GI50 in assay [19] is > 100 µM (inactive); in [1] it was > 100 µM (inactive); in [2], > 100 µM (inactive); in assay [3] it was > 100 µM (inactive); in assay [4], 65.2 µM (inactive); in [5], > 100 µM (inactive). Besides, the GI50 is > 100 µM (inactive) in [6]; > 100 µM (inactive) in assay [7]; > 100 µM (inactive) in [8]; 74.8 µM (inactive) in assay [9]; > 100 µM (inactive) in assay [10]; > 100 µM (inactive) in assay [11]. In addition, the GI50 in assay [14], in [15], in assay [16], in assay [17] and in assay [18] was > 100 µM (inactive) each time.

`CC1Cc2c(Br)nc(N)nc2NC1=O` (stereo not given): the GI50 in assay [1], in assay [2], in assay [3], in assay [4], in assay [5] and in [6] was > 100 µM (inactive) in each case. Also, the GI50 in assay [7], in assay [8], in assay [9], in assay [10], in assay [11] and in assay [12] was > 100 µM (inactive) in each case. For the same compound, the GI50 in [13], in assay [14], in assay [15], in [16], in assay [17] and in [18] was > 100 µM (inactive) throughout.

Regarding `ClCCN(CCCl)c1ccc(CNCCCNCc2ccc(N(CCCl)CCCl)cc2)cc1`, the GI50 in [19] is 1.59 µM (inactive); in assay [1], 1.92 µM (inactive); in assay [20], 1.03 µM (active); in assay [2], 1.63 µM (inactive); in assay [3], 5.92 µM (inactive); in [4], 2.69 µM (inactive). Besides, the GI50 in assay [5] was 2.29 µM (inactive); in assay [6], 1.46 µM (inactive); in assay [7] it was 0.521 µM (active); in [8], 2.38 µM (inactive); in [11], 2.17 µM (inactive); in [12], 2.1 µM (inactive). The GI50 in assay [14] was 6.15 µM (inactive); in [15] it was 6.64 µM (inactive); in [16], 3.38 µM (inactive); in [17], 3.03 µM (inactive); in assay [18], 4.7 µM (inactive).

As to `CC1OC(OC2CC(O)(C(=O)CO)Cc3c(O)c4c(c(O)c32)C(=O)c2ccccc2C4=O)CC(N)C1O` (stereo not given), the GI50 in [19] was 0.0162 µM (active); in [1], 0.12 µM (active); in assay [20], < 0.01 µM (active); in assay [2] it was < 0.0112 µM (active); in assay [3], 0.0301 µM (active); in assay [4], 0.106 µM (active). The GI50 in [5] was 0.054 µM (active); in assay [6], < 0.0112 µM (active); in assay [7], < 0.01 µM (active); in [8], 0.0171 µM (active); in [9], < 0.0137 µM (active); in assay [10], 0.0652 µM (active). In addition, the GI50 in assay [11] is 0.0387 µM (active); in assay [12], < 0.01 µM (active); in [13], < 0.01 µM (active); in [15], < 0.01 µM (active); in assay [16] it was 0.171 µM (active); in assay [17], < 0.01 µM (active). Further, in assay [18], the GI50 was < 0.015 µM (active).

Regarding `COc1ccc(NC2Oc3cc4c(cc3C(c3cc(OC)c(OC)c(OC)c3)C2C)OCO4)cc1` (stereo not given), the GI50 in [19] is 0.437 µM (active); in assay [1] it was 0.771 µM (active); in assay [20], 0.248 µM (active); in assay [2], 0.541 µM (active); in [3], 0.586 µM (active); in assay [4], 0.255 µM (active). For the same compound, the GI50 is 0.605 µM (active) in assay [5]; 0.222 µM (active) in assay [6]; 0.897 µM (active) in [7]; 0.655 µM (active) in assay [8]; 0.301 µM (active) in [9]; 0.0811 µM (active) in assay [10]. Besides, the GI50 was 0.538 µM (active) in [11]; 0.738 µM (active) in assay [12]; 0.422 µM (active) in assay [13]; 0.51 µM (active) in assay [15]; 1.04 µM (active) in assay [16]; 0.428 µM (active) in assay [17]. In addition, in assay [18], the GI50 is 0.294 µM (active).

For `COC1(OC)CC(CO)(CNc2nc(N)nc(Cl)c2C=O)C1`, the GI50 in assay [19] is 34.1 µM (inactive); in assay [1] it was 20.7 µM (inactive); in assay [20] it was 13.6 µM (inactive); in assay [2], 28.4 µM (inactive); in assay [3] it was 24 µM (inactive); in [4], 39.9 µM (inactive). Also, the GI50 in [5] is 27 µM (inactive); in [6], > 100 µM (inactive); in [7], 3.48 µM (inactive); in assay [8] it was 43 µM (inactive); in [9], 90.4 µM (inactive); in assay [12] it was 28.1 µM (inactive). Moreover, the GI50 in assay [13] was 21.1 µM (inactive); in assay [14], 31 µM (inactive); in assay [15], 42.6 µM (inactive); in assay [16], 48.5 µM (inactive); in assay [17] it was 53.2 µM (inactive).

The record behind these values is ChEMBL document CHEMBL1201862, “PubChem BioAssay data set” (2004).
